Experimental data published in the NIST ThermoML archive (doi:10.1016/j.fluid.2017.09.005).
Numbers after ± are expanded uncertainties.

Test: xn = mol fraction of the nth substance listed
Conditions: Liquid; for mass density: Vibrating tube method

CCCO [propan-1-ol] + O
viscosity [mPa·s], Capillary tube (Ostwald / Ubbelohde) method
Conditions	x1 = 0.1	x1 = 0.2	x1 = 0.3	x1 = 0.4	x1 = 0.6	x1 = 0.8	x1 = 1
523.2 K, 20000 kPa	0.131 ± 0.004	0.129 ± 0.004	0.122 ± 0.004	0.121 ± 0.004	0.117 ± 0.004	0.114 ± 0.004	0.115 ± 0.003
523.2 K, 30000 kPa	0.138 ± 0.004	0.139 ± 0.004	0.134 ± 0.004	0.134 ± 0.004	0.132 ± 0.004	0.13 ± 0.004	0.134 ± 0.004
523.2 K, 40000 kPa	0.138 ± 0.004	0.146 ± 0.004	0.145 ± 0.004	0.146 ± 0.004	0.146 ± 0.004	0.146 ± 0.004	0.15 ± 0.004
573.2 K, 20000 kPa	0.088 ± 0.003	0.082 ± 0.003	0.076 ± 0.003	0.073 ± 0.003	0.07 ± 0.003	0.071 ± 0.003	0.073 ± 0.002
573.2 K, 30000 kPa	0.092 ± 0.003	0.09 ± 0.003	0.085 ± 0.003	0.084 ± 0.003	0.082 ± 0.003	0.083 ± 0.003	0.085 ± 0.003
573.2 K, 40000 kPa	0.098 ± 0.003	0.098 ± 0.003	0.096 ± 0.003	0.094 ± 0.003	0.095 ± 0.003	0.097 ± 0.003	0.098 ± 0.003
618.2 K, 20000 kPa	0.056 ± 0.002	0.042 ± 0.002	0.04 ± 0.002	0.042 ± 0.002	0.047 ± 0.002	0.052 ± 0.002	0.057 ± 0.002
618.2 K, 30000 kPa	0.077 ± 0.002	0.07 ± 0.002	0.066 ± 0.002	0.065 ± 0.002	0.066 ± 0.002	0.07 ± 0.002	0.073 ± 0.002
618.2 K, 40000 kPa	0.086 ± 0.002	0.082 ± 0.002	0.079 ± 0.002	0.079 ± 0.002	0.08 ± 0.002	0.084 ± 0.002	0.087 ± 0.002

mass density [kg/m3]
Conditions	x1 = 0.1	x1 = 0.2	x1 = 0.3	x1 = 0.4	x1 = 0.6	x1 = 0.8	x1 = 1
523.2 K, 20000 kPa	733.5 ± 3.2	682.3 ± 3.4	648 ± 3.5	624.3 ± 3.3	596 ± 3.2	582.1 ± 3	575.3 ± 2.9
523.2 K, 30000 kPa	749.8 ± 3	702.6 ± 3	672.3 ± 3	651 ± 2.9	626.2 ± 2.9	613.3 ± 2.8	606.8 ± 2.7
523.2 K, 40000 kPa	761.7 ± 3	718.6 ± 2.8	689.7 ± 3	670.3 ± 2.9	647.5 ± 2.9	635.6 ± 2.7	629.3 ± 2.7
573.2 K, 20000 kPa	637.8 ± 4.4	576.7 ± 4.8	538 ± 4.7	513.7 ± 4.4	492.5 ± 3.9	489.6 ± 3.7	494.3 ± 3.5
573.2 K, 30000 kPa	664.2 ± 3.7	614.7 ± 3.7	583 ± 3.7	564.2 ± 3.6	545.3 ± 3.5	540.2 ± 3.4	540.6 ± 3.3
573.2 K, 40000 kPa	685.8 ± 3.5	640.9 ± 3.5	613.2 ± 3.5	596.3 ± 3.5	578.8 ± 3.4	572.6 ± 3.3	572.1 ± 3.3
618.2 K, 20000 kPa	430.7 ± 5.6	324.4 ± 6.4	311.8 ± 6	325.6 ± 5.5	360.4 ± 4.7	393.7 ± 4.1	419.4 ± 3.9
618.2 K, 30000 kPa	557.7 ± 4.5	504.6 ± 4.6	479.5 ± 4.5	469.8 ± 4.4	469.3 ± 4.1	480.8 ± 3.9	491.7 ± 3.8
618.2 K, 40000 kPa	603.6 ± 4	561.4 ± 4.2	539.6 ± 3.9	529 ± 3.9	523.2 ± 3.8	528 ± 3.8	534.1 ± 3.7

O [water] + CCCO
viscosity [mPa·s], Capillary tube (Ostwald / Ubbelohde) method, x2 = 0
Conditions	523.2 K	573.2 K	618.2 K
20000 kPa	0.11 ± 0.003	0.09 ± 0.002	0.072 ± 0.002
30000 kPa	0.113 ± 0.003	0.093 ± 0.002	0.077 ± 0.002
40000 kPa	0.115 ± 0.003	0.096 ± 0.002	0.081 ± 0.002

mass density [kg/m3], x2 = 0
Conditions	523.2 K	573.2 K	618.2 K
20000 kPa	816.1 ± 2.8	734.8 ± 3.7	619.7 ± 4.4
30000 kPa	825.5 ± 2.8	750.7 ± 3.5	656.9 ± 4.2
40000 kPa	834.3 ± 2.7	764.4 ± 3.4	682.3 ± 4

O [water] + CCO
viscosity [mPa·s], Capillary tube (Ostwald / Ubbelohde) method, x2 = 0
Conditions	523.2 K	573.2 K	618.2 K
20000 kPa	0.11 ± 0.003	0.09 ± 0.002	0.072 ± 0.002
30000 kPa	0.113 ± 0.003	0.093 ± 0.002	0.077 ± 0.002
40000 kPa	0.115 ± 0.003	0.096 ± 0.002	0.081 ± 0.002

mass density [kg/m3], x2 = 0
Conditions	523.2 K	573.2 K	618.2 K
20000 kPa	816.1 ± 2.8	734.8 ± 3.7	619.7 ± 4.4
30000 kPa	825.5 ± 2.8	750.7 ± 3.5	656.9 ± 4.2
40000 kPa	834.3 ± 2.7	764.3 ± 3.4	682.3 ± 4

O [water] + CO
viscosity [mPa·s], Pressure drop in straight capillary, x2 = 0
Conditions	523.2 K	573.2 K	618.2 K
20000 kPa	0.11 ± 0.009	0.09 ± 0.008	0.072 ± 0.008
30000 kPa	0.113 ± 0.009	0.093 ± 0.008	0.077 ± 0.008
40000 kPa	0.115 ± 0.009	0.096 ± 0.009	0.081 ± 0.008

mass density [kg/m3], x2 = 0
Conditions	523.2 K	573.2 K	618.2 K
20000 kPa	816.1 ± 2.8	734.8 ± 3.7	619.7 ± 4.4
30000 kPa	825.5 ± 2.8	750.7 ± 3.5	656.9 ± 4.2
40000 kPa	834.3 ± 2.7	764.4 ± 3.4	682.3 ± 4
